± gives the expanded uncertainty stated by the source.
Conditions: 298.15 K; 101.33 kPa; Liquid

mass density [kg/m3] | SMILES
873.4 ± 0.5 | c1ccccc1 [benzene]
1154.8 ± 0.8 | CCCCCC[n+]1ccccc1.F[B-](F)(F)F [1-hexylpyridinium tetrafluoroborate]
1214 ± 1 | CCCC[n+]1ccccc1.F[B-](F)(F)F [1-butylpyridinium tetrafluoroborate]
1202.5 ± 1 | CCCC[n+]1ccccc1C.F[B-](F)(F)F [1-butyl-2-methylpyridinium tetrafluoroborate]
1183.1 ± 0.9 | CCCC[n+]1ccc(C)cc1.F[B-](F)(F)F [1-butyl-4-methylpyridinium tetrafluoroborate]

SMILES | mass density [kg/m3]
Cc1ccccc1 [toluene] | 862.27 ± 0.53

— the NIST ThermoML archive (doi:10.1021/je901065e)
